The target in data set [1] is T1, Histone-lysine N-methyltransferase EZH2 (Homo sapiens, UniProt Q15910). The experiment in a line: Inhibition of EZH2 (unknown origin) using 3H-SAM as substrate incubated for 1 hour by filter binding method.
Data set [2] in a line: Metabolic stability in human liver microsomes at 1 uM in presence of NADPH generating system by LC/MS/MS analysis. The class given is ADME, Microsome. The settings on record: read-out: Stability.
Data set [3] in a line: Metabolic stability in mouse liver microsomes at 1 uM in presence of NADPH generating system by LC/MS/MS analysis. The class given is ADME, Microsome. The following applies: read-out: Stability.
The nature of data set [4]: Apparent permeability across apical to basolateral side in MDCK-MDR1 cells at 1 to 10 uM measured after 1 hrs by LC/MS/MS analysis. The class given is ADME, cell-based, Canis lupus familiaris. The settings on record: dog, dose 1-10 µM.
A further data set concerns KARPAS-422. Nature of the data set: Antiproliferative activity against human KARPAS-422 cells assessed as cell growth inhibition incubated for 72 hrs followed by compound dilution in growth medium and measured after 96 hrs by Alamar blue assay. It is filed as functional, cell-based.
The target in data set [5] is T1, Histone-lysine N-methyltransferase EZH2. The experiment in a line: Inhibition of EZH2 in HEK293T cells assessed as H3K27me3 levels incubated for 48 hrs by flow cytometry. It is filed as cell-based.
The next data set relates to MDR1. The experiment in a line: Efflux ratio of apparent permeability across basolateral to apical side over apical to basolateral side in MDCK-MDR1 cells at 1 to 10 uM measured after 1 hrs by LC/MS/MS analysis. It is filed as ADME, cell-based, Canis lupus familiaris. The settings on record: dog, dose 1-10 µM.
A short description of data set [6]: Ratio of unbound drug concentration in brain to blood in Sprague-Dawley rat at 1 mg/kg, iv measured after 15 mins by LC/MS/MS analysis. It is filed as ADME, organism-based. The following applies: read-out: K(p,uu,brain).

T1 sequence (Q15910 whole entry): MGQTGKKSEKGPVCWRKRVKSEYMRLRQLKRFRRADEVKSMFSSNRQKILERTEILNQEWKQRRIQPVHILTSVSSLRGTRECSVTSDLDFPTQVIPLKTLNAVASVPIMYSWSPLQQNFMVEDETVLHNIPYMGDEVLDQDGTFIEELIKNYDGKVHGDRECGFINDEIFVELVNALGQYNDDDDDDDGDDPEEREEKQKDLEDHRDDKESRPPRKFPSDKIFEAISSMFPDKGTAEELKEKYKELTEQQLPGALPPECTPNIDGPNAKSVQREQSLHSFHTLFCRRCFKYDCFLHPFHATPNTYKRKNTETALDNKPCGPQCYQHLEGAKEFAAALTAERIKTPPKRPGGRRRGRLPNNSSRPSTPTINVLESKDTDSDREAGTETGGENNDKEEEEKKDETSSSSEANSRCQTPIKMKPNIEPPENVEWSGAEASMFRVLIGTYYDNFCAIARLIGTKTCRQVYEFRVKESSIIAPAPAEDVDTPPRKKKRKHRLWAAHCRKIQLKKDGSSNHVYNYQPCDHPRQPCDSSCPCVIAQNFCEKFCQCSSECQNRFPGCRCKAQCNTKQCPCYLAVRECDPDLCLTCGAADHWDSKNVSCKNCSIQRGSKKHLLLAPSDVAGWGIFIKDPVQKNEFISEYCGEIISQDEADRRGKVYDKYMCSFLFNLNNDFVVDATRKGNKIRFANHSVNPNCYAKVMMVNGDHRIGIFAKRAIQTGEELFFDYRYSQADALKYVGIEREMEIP

Consider `CCN1CCN(Cc2c(OC)cc(C)[nH]c2=O)C(=O)c2c(Cl)c(-c3c(C)noc3C)cc(Cl)c21`, for which the IC50 in data set [1] came out at 33.4 nM.
In data set [1], `COc1cc(C)[nH]c(=O)c1CN1CCN(C)c2c(Cl)cc(OC(C)C)c(Cl)c2C1=O` gave an IC50 of 33.4 nM. Also, the microsomal CLint at 1 µM in data set [2] is 29 µL/min/mg; in data set [3], more than 768 µL/min/mg.
In the same order, the values of `COc1cc(C)[nH]c(=O)c1CN1CCN(C)c2c(Cl)cc(C(C)C3CCOCC3)c(Cl)c2C1=O` (stereo not given) are 2 nM, 206 µL/min/mg and 562 µL/min/mg.
With `COc1cc(C)[nH]c(=O)c1CN1CCN(C)c2c(Cl)cc(-c3c(C)noc3C)c(Cl)c2C1=O`, in data set [4], the Papp A→B at 1 h, up to 10 µM is less than 0.1 ×10⁻⁶ cm/s. Moreover, the 50% inhibitory concentration (IC50) in the data set with KARPAS-422 came to 245 nM; in data set [1] it was 0.87 nM; in data set [5] it was 208 nM. Further, the results for the microsomal CLint at 1 µM in data set [2] and in data set [3] were 80 µL/min/mg and 112 µL/min/mg, respectively. Besides, the efflux ratio at 1 h, up to 10 µM in the data set on MDR1 is more than 49.
`Cc1cc(C)n(C)c(=O)c1CN1CCc2c(Cl)cc(-c3c(C)noc3C)c(Cl)c2C1=O`: the Papp A→B at 1 h, up to 10 µM in data set [4] is 10.5 ×10⁻⁶ cm/s. In addition, in the data set with KARPAS-422, the IC50 is 4680 nM. The Kp uu at 0.25 h in data set [6] was determined as 0.29. The microsomal CLint at 1 µM is 449 µL/min/mg in data set [2] and more than 768 µL/min/mg in data set [3].
Regarding `CCc1cc(C)[nH]c(=O)c1CN1CCN(C)c2c(Cl)cc(-c3c(C)noc3C)c(Cl)c2C1=O`, the Papp A→B at 1 h, up to 10 µM in data set [4] is less than 0.1 ×10⁻⁶ cm/s. The compound further returned an IC50 in data set [1] of 1.8 nM. In addition, the efflux ratio at 1 h, up to 10 µM with MDR1 is more than 170.
With `Cc1noc(C)c1-c1cc(Cl)c2c(c1Cl)C(=O)N(Cc1c(C(F)(F)F)cc(C)n(C)c1=O)CC2`, in data set [4], the Papp A→B at 1 h, up to 10 µM is 4.9 ×10⁻⁶ cm/s. This compound also displayed an IC50 in data set [1] of more than 1000 nM. Also, the microsomal CLint at 1 µM in data set [2] came to 287 µL/min/mg; in data set [3], 592 µL/min/mg. In addition, the efflux ratio at 1 h, up to 10 µM in the data set on MDR1 is 2.4.
In turn, `COc1cc(C)[nH]c(=O)c1CN1CCN(C)c2c(Cl)cc(-c3ccc(N4CCOCC4)cc3)c(Cl)c2C1=O` came in with an IC50 in data set [1] of 64.8 nM. Besides, the microsomal CLint at 1 µM amounted to 7 µL/min/mg in data set [2] and 8 µL/min/mg in data set [3].
Consider `COc1cc(C)n(C)c(=O)c1CN1CCc2c(Cl)cc(-c3c(C)noc3C)c(Cl)c2C1=O`, for which, in data set [4], the Papp A→B at 1 h, up to 10 µM came out at 1 ×10⁻⁶ cm/s. In addition, the IC50 with KARPAS-422 is 2950 nM; in data set [1], 11.6 nM. The results for the microsomal CLint at 1 µM in data set [2] and in data set [3] were 117 µL/min/mg and 656 µL/min/mg, respectively. Further, the efflux ratio at 1 h, up to 10 µM in the data set with MDR1 came out at 23.
For `COc1cc(C)[nH]c(=O)c1CN1CCNc2c(Cl)cc(-c3c(C)noc3C)c(Cl)c2C1=O`, in data set [4], the Papp A→B at 1 h, up to 10 µM is less than 0.1 ×10⁻⁶ cm/s. The IC50 with KARPAS-422 is 65 nM; in data set [1], 0.35 nM; in data set [5], 17 nM. Further, the microsomal CLint at 1 µM in data set [2] was 79 µL/min/mg; in data set [3], 123 µL/min/mg. Besides, the efflux ratio at 1 h, up to 10 µM with MDR1 was more than 51.
Regarding `CSc1cc(C)[nH]c(=O)c1CN1CCN(C)c2c(Cl)cc(-c3c(C)noc3C)c(Cl)c2C1=O`, the Papp A→B at 1 h, up to 10 µM in data set [4] was less than 0.1 ×10⁻⁶ cm/s. Also, the IC50 in the data set on KARPAS-422 was determined as 125 nM; in data set [1] it was 0.9 nM. Moreover, the efflux ratio at 1 h, up to 10 µM in the data set on MDR1 is more than 99.
In turn, `COc1cc(C)n(C)c(=O)c1CN1CCN(C)c2c(Cl)cc(-c3c(C)noc3C)c(Cl)c2C1=O` gave an IC50 in data set [1] of 541 nM.
As for `Cc1cc(C)c(CN2CCc3c(Cl)cc(-c4c(C)noc4C)c(Cl)c3C2=O)c(=O)[nH]1`, the apparent permeability from apical to basolateral (Papp A→B) at 1 h, up to 10 µM in data set [4] came to 3.7 ×10⁻⁶ cm/s. Further, the IC50 in the data set with KARPAS-422 was found to be 122 nM; in data set [1] it was 1 nM; in data set [5], 16 nM. In addition, in data set [6], the Kp uu at 0.25 h was less than 0.003. Further, the results for the microsomal CLint at 1 µM in data set [2] and in data set [3] were 210 µL/min/mg and 253 µL/min/mg, respectively. Also, the efflux ratio at 1 h, up to 10 µM in the data set on MDR1 was 4.8.
Consider `COc1cc(C)[nH]c(=O)c1CN1CCN(C)c2c(Cl)cc(-c3ccc(Cl)cc3F)c(Cl)c2C1=O`, for which the IC50 in data set [1] was determined as 72.1 nM. For the same compound, the microsomal CLint at 1 µM turned out to be 97 µL/min/mg in data set [2] and 297 µL/min/mg in data set [3].
As to `CSc1cc(C)n(C)c(=O)c1CN1CCN(C)c2c(Cl)cc(-c3c(C)noc3C)c(Cl)c2C1=O`, the Papp A→B at 1 h, up to 10 µM in data set [4] was found to be 0.2 ×10⁻⁶ cm/s. For the same compound, the values for the IC50 (with KARPAS-422; in data set [1]) were 10400 nM and 11.4 nM, respectively. Besides, the efflux ratio at 1 h, up to 10 µM in the data set on MDR1 amounted to 110.
Consider `COc1cc(C)[nH]c(=O)c1CN1CCN(C)c2ccc(-c3c(C)noc3C)c(Cl)c2C1=O`, for which the Papp A→B at 1 h, up to 10 µM in data set [4] is less than 0.1 ×10⁻⁶ cm/s. For the same compound, the IC50 in data set [1] is 2.9 nM. The microsomal CLint at 1 µM in data set [2] came to 9 µL/min/mg.
For the compound `CCc1cc(C)n(C)c(=O)c1CN1CCc2c(Cl)cc(-c3c(C)noc3C)c(Cl)c2C1=O`, in data set [4], the Papp A→B at 1 h, up to 10 µM was determined as 11 ×10⁻⁶ cm/s. In data set [1], this compound had an IC50 of 82 nM. The microsomal CLint at 1 µM in data set [2] and in data set [3] was more than 768 µL/min/mg each time. Moreover, in the data set on MDR1, the efflux ratio at 1 h, up to 10 µM was 0.72.
As to `CSc1cc(C)n(C)c(=O)c1CN1CCNc2c(Cl)cc(-c3c(C)noc3C)c(Cl)c2C1=O`, the Papp A→B at 1 h, up to 10 µM in data set [4] stood at 0.2 ×10⁻⁶ cm/s. Further, the figures for the IC50 (in the data set on KARPAS-422; in data set [1]) were 1320 nM and 2.1 nM, respectively. Besides, the efflux ratio at 1 h, up to 10 µM with MDR1 was 220.
In turn, `COc1cc(C)[nH]c(=O)c1CN1CCN(C)c2c(Cl)cc(C(O)C3CCOCC3)c(Cl)c2C1=O` (stereo not given) came in with an IC50 in data set [1] of 9.4 nM. In addition, the results for the microsomal CLint at 1 µM in data set [2] and in data set [3] were 34 µL/min/mg and 91 µL/min/mg, respectively.
Turning to `CSc1cc(C)n(C)c(=O)c1CN1CCc2c(Cl)cc(-c3c(C)noc3C)c(Cl)c2C1=O`, in data set [4], the Papp A→B at 1 h, up to 10 µM was 0.3 ×10⁻⁶ cm/s. For the same compound, the IC50 in the data set on KARPAS-422 is 632 nM; in data set [1] it was 1.3 nM. Moreover, the microsomal CLint at 1 µM came out at 235 µL/min/mg in data set [2] and 796 µL/min/mg in data set [3]. Further, the efflux ratio at 1 h, up to 10 µM in the data set with MDR1 was 110.
For the compound `CCN(c1cc(Cl)c2c(c1Cl)C(=O)N(Cc1c(OC)cc(C)[nH]c1=O)CCN2C)C1CCOCC1`, the IC50 in data set [1] was 1.9 nM. Further, the results for the microsomal CLint at 1 µM in data set [2] and in data set [3] were 181 µL/min/mg and more than 768 µL/min/mg, respectively.
With `Cc1noc(C)c1-c1cc(Cl)c2c(c1Cl)C(=O)N(Cc1c(C3CC3)cc(C)n(C)c1=O)CC2`, in data set [4], the Papp A→B at 1 h, up to 10 µM stood at 5.2 ×10⁻⁶ cm/s. This compound came in with an IC50 in data set [1] of 302 nM. In addition, the microsomal CLint at 1 µM in data set [2] was 490 µL/min/mg; in data set [3] it was more than 768 µL/min/mg. Moreover, the efflux ratio at 1 h, up to 10 µM with MDR1 is 1.5.
Compound `COc1cc(C)[nH]c(=O)c1CN1CCN(C)c2c(Cl)cc(-c3ccc(CN4CCOCC4)cc3)c(Cl)c2C1=O` yielded an IC50 in data set [1] of 220 nM. Also, the microsomal CLint at 1 µM in data set [2] and in data set [3] was 41 µL/min/mg in each case.

For the origin of these results see ChEMBL document CHEMBL5046305, “A Chemical Strategy toward Novel Brain-Penetrant EZH2 Inhibitors” (ACS Med Chem Lett, 2022).
